Experimental data as given in patent publication US9353116B2, “Methods and compositions for kinase inhibition” (THE REGENTS OF THE UNIVERSITY OF CALIFORNIA, priority 2010, dated 2016).
Read-outs that look alike come from different tables or passages of the source.

Tests used:
[1] = molecular target: T1, WT c-Src (Gallus gallus (Chicken), UniProt P00523); test: Gel filtration and kinetic assay, WT c-Src; format: biochemical; details: 23 μM inhibitor, 25 minutes, then PD10 desalting
Procedure: (§1) Inhibitors (final concentration 23 μM) were incubated with c-Src variants (final concentration 11.5 μM) in kinase reaction buffer (50 mM Tris pH 8, 100 mM NaCl, 1 mM DTT, 5% glycerol, 5% DMSO) for 25 minutes at room temperature. The solutions (2.6 mL total) were then passed over PD10 desalting columns (GE Healthcare) using the kinase reaction buffer for elution. Src concentrations were calculated using the extinction coefficient for c-Src (51.140 mM^−1cm^−1) {Seeliger, 2005 #100}. Kinase assays were performed as described in the experimental section at a final enzyme concentration of 10 nM.

[2] = molecular target: I338T v-Src (Rous sarcoma virus (strain H-19), UniProt P25020, I338T); format: cell-based
Procedure: (§2) Curr Biol 8(5):257-266. Cells were grown to 60-90% confluence in DMEM supplemented with fetal bovine serum (10%), penicillin ‘G’ (100 units/ml) and streptomycin sulfate (100 μg/ml) (PenStrep, UCSF Cell Culture Facility) prior to treatment with kinase inhibitors dissolved in DMSO (final DMSO concentration, 0.5%). Following 1 hour of incubation with inhibitors at 37° C., cells were harvested in lysis buffer (50 mM Tris (pH 7.4), 300 mM NaCl, 5 mM EDTA, 1% triton, 0.02% NaN3, 1× complete mini protease inhibitor (Roche), 1 mM PMSF, 1×PHOS-stop (Roche), 0.02 μM microcystin, 2 mM sodium orthovanadate), normalized for concentration and analyzed by Western blot for global phosphotyrosine levels (4G10, Millipore, 1:1000). Levels of β-actin (β-actin Antibody, Cell Signaling, 1:1000) and v-Src (Src 32G6 rabbit mAb, Cell Signaling, 1:1000) were ascertained by Western blot.
(§3) I338C (v-Src-ES1, SEQ ID NO:48), I338T (SEQ ID NO:49), I338G (v-Src-AS1, SEQ ID NO:50) and WT v-Src-transformed NIH-3T3 cell lines were generated. Unlike c-Src, v-Src is constitutively active and harbors an isoleucine gatekeeper. The I338T v-Src variant was generated for consistency with the in vitro c-Src studies. For each cell line, global levels of phosphotyrosine were analyzed (FIG. 7). […]

[3] = molecular target: T2, T338C c-Src (Gallus gallus (Chicken), UniProt P00523, T338C); test: In vitro kinase assay, T338C c-Src (c-Src-ES1); format: biochemical
Procedure: In vitro kinase assays for c-Src variants were performed in 50 mM Tris (pH 8.0), 10 mM MgCl2 and 1 mg/mL BSA. When obtaining kinetic parameters (kcat, Km) kinase and peptide substrate (IYGEFKKK) (SEQ ID NO:51) concentrations were 2 nM and 500 μM, respectively, while ATP concentrations ranged from 2000-0.655 μM. Addition of nonradioactive ATP supplemented with ^32P ATP (3,000 Ci/mmol, NEN) was used to initiate kinase reactions. Time points were selected such that product formation never exceeded 10%. Reactions were quenched by spotting 3 μL quantities onto phosphocellulose sheets (P81, Whatman). Afterwards, the sheets were washed 3×5 minutes in 0.5% phosphoric acid and dried. Radioactivity was measured by phosphorimaging and recorded on a Typhoon fluorescence imager (Molecular Dynamics). Data were plotted as rate (min^−1) versus ATP concentration and fitted to the Michaelis-Menten equation, v=[(kcat)[S]]/(Km+[S]), using Kaleidagraph software (Synergy) to extract kinetic parameters. When obtaining IC50 values for the inhibitors, 2% (v/v) DMSO was included in kinase reactions. In these cases ATP, peptide, and enzyme concentrations were 15 nM, 100 μM and 5 nM, respectively, while inhibitor concentrations ranged from 10,000-0.610 nM. […] The data was fitted to a sigmoidal dose-response curve using Prism 4.0c (GraphPad Software) to obtain IC50 values.

[4] = molecular target: c-Src-ES2 (T338C/V323A) (Gallus gallus (Chicken), UniProt P00523, T338C/V323A); test: In vitro kinase assay, c-Src-ES2; format: biochemical
Procedure: (§4) In vitro kinase assays for c-Src variants were performed in 50 mM Tris (pH 8.0), 10 mM MgCl2 and 1 mg/mL BSA. When obtaining kinetic parameters (kcat, Km) kinase and peptide substrate (IYGEFKKK) (SEQ ID NO:51) concentrations were 2 nM and 500 μM, respectively, while ATP concentrations ranged from 2000-0.655 μM. Addition of nonradioactive ATP supplemented with ^32P ATP (3,000 Ci/mmol, NEN) was used to initiate kinase reactions. Time points were selected such that product formation never exceeded 10%. Reactions were quenched by spotting 3 μL quantities onto phosphocellulose sheets (P81, Whatman). Afterwards, the sheets were washed 3×5 minutes in 0.5% phosphoric acid and dried. Radioactivity was measured by phosphorimaging and recorded on a Typhoon fluorescence imager (Molecular Dynamics). Data were plotted as rate (min^−1) versus ATP concentration and fitted to the Michaelis-Menten equation, v=[(kcat)[S]]/(Km+[S]), using Kaleidagraph software (Synergy) to extract kinetic parameters. When obtaining IC50 values for the inhibitors, 2% (v/v) DMSO was included in kinase reactions. In these cases ATP, peptide, and enzyme concentrations were 15 nM, 100 μM and 5 nM, respectively, while inhibitor concentrations ranged from 10,000-0.610 nM. In all cases, a ten-minute preincubation step between the kinase and the inhibitor preceded addition of ATP and a fifteen-minute reaction. The data was fitted to a sigmoidal dose-response curve using Prism 4.0c (GraphPad Software) to obtain IC50 values.

[5] = molecular target: T1, WT c-Src; test: In vitro kinase assay, WT c-Src; format: biochemical; details: inhibitor preincubated with Src ten minutes prior to addition of ATP; read-out: WT c-Src IC50
Procedure: as §4

[6] = molecular target: v-Src-ES1 (I338C) (Rous sarcoma virus (strain H-19), UniProt P25020, I338C); test: Inhibition assay with v-Src-ES1 transformed NIH-3T3 cells; format: cell-based
Procedure: as §2, §3

[7] = molecular target: T2, T338C c-Src; test: Gel filtration and kinetic assay, T338C c-Src; format: biochemical; details: 23 μM inhibitor, 25 minutes, then PD10 desalting
Procedure: as §1

[8] = molecular target: T2, T338C c-Src; test: Full protein mass spectrometry of covalent labeling; format: binding; details: two equivalents of inhibitor
Procedure: Protein labeling conditions: Kinase labeling reactions were performed by incubating 30 μL quantities of c-Src variants (in 50 mM Tris pH 8, 100 mM NaCl, 1 mM DTT, 5% glycerol) with two equivalents of inhibitor in DMSO (final DMSO concentration=2.4%). The covalent labeling reaction was quenched by removing 4 μL and adding it to 31 μL of 0.1% formic acid. The sample was then analyzed by ES1-oa-TOF mass spectrometry.

[9] = molecular target: c-Src-ES3 (T338C/V323S) (Gallus gallus (Chicken), UniProt P00523, T338C/V323S); test: In vitro kinase assay, c-Src-ES3; format: biochemical; details: ES3 = T338C/V323S; read-out: c-Src variant IC50 (nM) ES3
Procedure: as §4

[10] = test system: 307 kinases; test: Kinome-wide profiling (SelectScreen Kinase Profiling Service); format: biochemical; details: compounds at 1 μM, ATP at Km,app
Procedure: The percent inhibition results in FIG. were generated with biochemical enzymatic kinase assays using the SelectScreen® Kinase Profiling Service (Life Technologies Corporation, Madison, Wis.). Compounds were assayed at 1 μM at an ATP concentration equal to the ATP Km,app for the assay following the detailed procedures described in the SelectScreen® Customer Protocol and Assay Conditions documents located at www.invitrogen.com/kinaseprofiling.
Compounds that were profiled include, but are not limited to, 3, 4, 9, 13, and 20. […] The exocyclic amine mimics N6 of ATP and plays an important role in a hydrogen bonding interaction with the hinge region of kinases.

[11] = Toxicity profiles (LD50); details: FIG. 17-19
[12] = inhibitor preincubated with Src ten minutes prior to addition of ATP, read-out: T338C c-Src IC50

| SMILES | inhibitory activity after gel filtration, WT c-Src [1] | inhibition of I338T v-Src in cells (global phosphotyrosine levels) [2] | time dependence of inhibition of T338C c-Src [3] | IC50 ([3]; ES1 = T338C, read-out: c-Src variant IC50 (nM) ES1) [nM] | IC50 ([3]; T338C c-Src IC50 (nM), preincubation time 2 min) [nM] | IC50 ([3]; T338C c-Src IC50 (nM), preincubation time 20 min) [nM] | IC50 ([3]; T338C c-Src IC50 (nM), preincubation time 40 min) [nM] | IC50 [3, 12] [nM] | IC50 ([4]; ES2 = T338C/V323A, read-out: c-Src variant IC50 (nM) ES2) [nM] | change of inhibitor potency upon second-site Val323 mutations ([4]; c-Src-ES2 and c-Src-ES3 relative to c-Src-ES1) | IC50 [5] [µM] | inhibition of v-Src-ES1 in cells (global phosphotyrosine levels) [6] | inhibitory activity after gel filtration, T338C c-Src [7] | covalent labeling / adduct formation by full protein mass spectrometry [8] | IC50 [9] [nM] | off-target profile in kinome-wide screen [10] | LD50 [11] [µM] |
| --- | --- | --- | --- | --- | --- | --- | --- | --- | --- | --- | --- | --- | --- | --- | --- | --- | --- |
| C=CS(=O)(=O)Nc1cccc(Cc2nn(C(C)C)c3ncnc(N)c23)c1 [Compound 9, N-(3-((4-amino-1-isopropyl-1H-pyrazolo[3,4-d]pyrimidin-3-yl)methyl)phenyl)ethenesulfonamide] | lost | neither 9 nor 13 inhibited I338T v-Src | time-dependent manner | 150 | 981 | 309 | 138 | 150 | 207 | not modulated appreciably | > 5 | inhibited v-Src-ES1 in a dose-dependent manner | retained | specific labeling of T338C relative to WT c-Src | 424 | relatively few off-target effects | – |
| C=CS(=O)(=O)Nc1cccc(Nc2ncnc3cc(OC)c(OC)cc23)c1 [Compound 19, N-(3-(6,7-dimethoxyquinazolin-4-ylamino)phenyl)ethenesulfonamide] | – | – | – | – | – | – | – | 1000 | – | – | > 5 | – | – | – | – | – | 3.92 |
